Experiment: Inhibitory concentration for heterotrimeric G protein, transducer

Row | IC50 [µM] | SMILES
1 | > 1000 | Nc1nc2c(ncn2[C@@H]2O[C@H](COC(=O)CP(=O)(O)O)C(O)C2O)c(=O)[nH]1 (single isomer, unassigned)
2 | > 1000 | NCCOCCOCCn1c(N)nc2c(ncn2C2O[C@H](COP(=O)(O)NP(=O)(O)O)[C@@H](O)[C@H]2O)c1=O (stereo partly drawn)
3 | > 1000 | Nc1nc(O)c2ncn(C3O[C@H](COC(=O)CC(=O)O)C(O)C3O)c2n1 (single isomer, unassigned)
4 | 500 | CCC(=O)O[C@H]1[C@@H](O)[C@H](n2cnc3c(O)nc(N)nc32)O[C@@H]1COP(=O)(O)NP(=O)(O)O
5 | 12 | Nc1nc(O)c2ncn(C3O[C@H](COP(=O)(O)NP(=O)(O)O)[C@@H](O)[C@H]3O)c2n1 (stereo partly drawn)
6 | > 1000 | Nc1nc(O)c2ncn(C3O[C@H](COP(=O)(O)CC(=O)O)C(O)C3O)c2n1 (single isomer, unassigned)
7 | > 1000 | NCCOCCOc1nc(N)nc2c1ncn2C1O[C@H](COP(=O)(O)NP(=O)(O)O)[C@@H](O)[C@H]1O (stereo partly drawn)

Row | SMILES | IC50 [µM]
8 | Nc1nc2c(ncn2[C@@H]2O[C@H](COP(=O)(O)CP(=O)(O)O)C(O)C2O)c(=O)[nH]1 (single isomer, unassigned) [PHOSPHOMETHYLPHOSPHONIC ACID GUANOSYL ESTER] | > 1000
